PMC9181938, “Fluorinated Analogues of Lepidilines A and C: Synthesis and Screening of Their Anticancer and Antiviral Activity” (Molecules, 2022)

Experiments:
[1] = Cytotoxicity screening at 10 µM (MTT); type: cell-based, Cercopithecus aethiops; details: Cercopithecus aethiops, Vero cells, read-out: Cell line (viability %) Vero
[2] = test system: Human herpesvirus 5 (HCMV); assay: Antiviral screening at 10 µM, plaque reduction; type: cell-based; details: Human betaherpesvirus 5, antiviral screening, HCMV-infected cells, read-out: Cell line (viability %) HCMV
Protocol: Antiviral properties of compounds 1a, 1c, 1a[PF6], 1c[PF6], 9b[PF6], 9c[PF6], 10a–10d, 2a, and 2b were assessed against five viruses: Human herpesvirus 1 (HSV-1, VR-539), Human parainfluenza virus type 3 (HPIV-3, VR-93), Human adenovirus 5 (AdV5, VR-5), Human herpesvirus 5 (HCMV, VR-977), and Encephalomyocarditis virus (EMCV, VR-1479). Viruses were purchased from the American Type Culture Collection (ATCC, Manassas, VA, USA).
All tested compounds were dissolved in DMSO (dimethyl sulfoxide, Sigma-Aldrich, Darmstadt, Germany) and then suspended in Minimum Essential Medium (MEM; Sigma-Aldrich, Darmstadt, Germany) supplemented with 2% heat-inactivated fetal bovine serum (FBS; Sigma-Aldrich, Darmstadt, Germany), 2 mM L-glutamine (Sigma-Aldrich, Darmstadt, Germany), and 100 units/mL penicillin G with […] streptomycin (Sigma-Aldrich, Darmstadt, Germany).
Vero, LLC-MK2, NCTC clone 929, MRC-5, and HeLa cells were propagated in Minimum Essential Medium (MEM; Sigma-Aldrich, Darmstadt, Germany) supplemented with 10% heat-inactivated fetal bovine serum (FBS; Sigma-Aldrich, Darmstadt, Germany) and 100 units/mL penicillin G with […] streptomycin (Sigma-Aldrich, Darmstadt, Germany). Upon reaching 80–90% confluency, cells were harvested with 0.25% trypsin in 1 mM EDTA (Life Technologies, Warsaw, Poland) and seeded onto 96-well microplates at 2 × 10^5 cells/mL. After overnight incubation of cells at 37 °C in a humidified atmosphere containing 5% CO2, the culture medium was removed, and cells were inoculated with the respective virus solution in MEM supplemented with 2% FBS and antibiotics (HSV-1 MOI 0.005, 1000 virions/mL; HPIV-3 MOI 0.01, 2000 virions/mL; AdV5 MOI 0.005, 1000 virions/mL, EMCV MOI 0.005, 1000 virions/mL, HCMV 20 PFU (plaque forming units) per well). After a 1-h (HSV-1, HPIV-3, AdV5, and EMCV) or 2-h adsorption period (HCMV), the residual virus was removed, and the infected cells were further incubated with a 100 μL freshly prepared solution of tested compounds diluted with a maintenance medium supplemented with 2% FBS to obtain compound concentrations of 10 µM. The final concentration of DMSO in the medium was 0.1%. All experiments were carried out in triplicate. The cells monolayers were incubated with the compounds at 37 °C in a humidified atmosphere containing 5% CO2 until the typical cytopathic effect (CPE) was visible. Viral infection was evaluated by the MTT assay or plaque reduction assay (HCMV). After incubation with drugs, the cells were treated with 3-(4,5-dimethylthiazol-2-yl)-2,5-diphenyltetrazolium bromide dye solution (MTT, Sigma-Aldrich, Darmstadt, Germany) (25 μL, 5 mg/mL) for 2 h and lysed with solvent solution (100 μL) containing: DMF (Sigma-Aldrich, Darmstadt, Germany) (45 mL), SDS (Sigma-Aldrich, Darmstadt, Germany) (13.5 g), and distilled water (55 mL). After overnight incubation at 37 °C, the optical density at 550 nm and a reference wavelength of 670 nm were measured on a microplate spectrophotometer, Varioskan Lux (Thermo Fisher Scientific, Waltham, MA, USA). The number of HCMV plaques was counted under an inverted microscope Olympus IX73 (Olympus, Tokyo, Japan).

[3] = test system: Human herpesvirus 1 (HSV-1); assay: Antiviral screening at 10 µM; type: cell-based; details: Human alphaherpesvirus 1, antiviral screening, HSV-1-infected cells, read-out: Cell line (viability %) HSV-1
Summary of the method: (§1)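 Infected Vero, LLC-MK2, NCTC 929 or HeLa cell monolayers (MOI 0.005; HPIV-3 MOI 0.01) were treated after 1-h adsorption with compounds at 10 µM (0.1% DMSO). Cultures were incubated at 37 °C until cytopathic effect was visible. Viral infection was scored by MTT assay (OD 550/670 nm), in triplicate.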

[4] = test system: Human adenovirus 5 (AdV5); assay: Antiviral screening at 10 µM; type: cell-based; details: Human mastadenovirus C, AdV5-infected cells, read-out: Cell line (viability %) AdV5
Summary of the method: as §1

[5] = test system: Human parainfluenza virus type 3 (HPIV-3); assay: Antiviral screening at 10 µM; type: cell-based; details: Human respirovirus 3, antiviral screening, HPIV-3-infected cells, read-out: Cell line (viability %) HPIV-3
Summary of the method: as §1

[6] = test system: Encephalomyocarditis virus (EMCV); assay: Antiviral screening at 10 µM; type: cell-based; details: Cardiovirus A, EMCV-infected cells, read-out: Cell line (viability %) EMCV
Summary of the method: as §1

Compound `Cc1c(C)n(Cc2ccccc2)c(=S)n1Cc1ccccc1` [Compound 10a] has a viability at 48 h, 10 µM [1] of 83.8%, a viability at 10 µM [2] of 3.6% and a viability at 10 µM [3] of 29.7%. The viability at 10 µM [4] was 62%, the viability at 10 µM [5] was 69.2% and the viability at 10 µM [6] was 79.6%.
